Experimental findings from patent publication US20100143899A1, “METHODS AND PRODUCTS FOR DIAGNOSING CANCER” (University of Vermont and State Agricultural College, priority 2005, published 2010) are described below.

Entries after “also recorded” stand apart in the source; their conditions may differ. Where only a bound is given, the exact number is not on record here.

Experiment [1] concerns methylated candidate genes in melanoma cell lines. Nature of the experiment: Quantitative RT-PCR of candidate genes after 5AzadC treatment. The class given is cell-based, human. The conditions noted are these: expression relative to melanocytes. How it is done:
(§1) 5AzadC treatment and microarray analysis. Cells were grown to 50% confluence in 100 mm culture plates and treated with 5 μM 5AzadC (Sigma; St. Louis, Mo.) dissolved in growth media. Fresh 5AzadC media was added every 24 hours until the end of the assay (96 hours). RNA and DNA were isolated from a batch of 5AzadC treated cells every 24 hours starting with 0 hour controls. RNA was isolated following 0 hr and 48 hr 5AzadC treatment of six melanoma cell lines (MelJuSo, UACC 903, c8161, Neo-6 c8161, WM1205 and WM35) and used for the re-expression microarray analysis. Total RNA was isolated using the RNeasy kit (Qiagen; Valencia, Calif.) according to manufacturer's instructions. […] Probe set signal calls with p values greater than 0.01 were not further evaluated. […]
(§2) Bisulfite sequencing and quantitative PCR. […] Particular CpG sites were scored as positive if the C:T peak ratio exceeded 1:3 (at least 25% methylation). Real time quantitative PCR was performed for validation of microarray expression data of selected candidate genes by using 2.5 μl of 100 fold diluted cDNA template and 0.2 μM gene specific primers in a 25 μl PCR reaction using JumpStart SYBR green kit (Sigma) according to manufacturer's instructions in an ABI 7700. The reactions were performed in duplicate, CT values obtained were normalized to GAPDH levels and quantification was performed using the comparative CT method.

For experiment [2], the system named is six human melanoma cell lines (MelJuSo, UACC 903, c8161, Neo-6 c8161, WM1205 and WM35). Nature of the experiment: Re-expression microarray analysis after 5AzadC treatment. The format is cell-based. The conditions noted are these: 5 μM 5AzadC, 48 hours, relative to untreated cells; in at least one of the six melanoma cell lines; HG U133A microarray. As to the method: as §1, with “instructions. Preparation of double stranded cDNA and in-vitro transcription (IVT) was as per manufacturer's recommendations. Biotinylated cRNA obtained from IVT were fragmented and hybridized on Human Genome U133A array as per manufacturer's recommendations (Affymetrix; Santa Clara, Calif.).” for “instructions.”
In order to determine DNA methylation-related expression changes, six human melanoma cell lines were treated with 5AzadC and compared for expression changes at 48 hours post-treatment relative to untreated melanoma cell lines. […] No DNA methylation was detected in primary human melanocytes at any of the loci. […]

In experiment [3] the test system is HOXB13 mRNA in melanoma cell lines. Nature of the experiment: Quantitative RT-PCR of HOXB13 expression after 5AzadC treatment. The class given is cell-based, human. The conditions noted are these: in 2 out of 3 cell lines with promoter region methylation. As to the method:
as §1, §2

For experiment [4], the system named is SYK mRNA in melanoma cell lines. The experiment can be described thus: Quantitative RT-PCR of SYK expression after 5AzadC treatment. The format is cell-based, human. The conditions noted are these: in a subset (4/8) of cell lines with SYK methylation. How it is done:
as §1, §2

In experiment [5] the test system is QPCT promoter region in MelJuSo melanoma cell line. The experiment can be described thus: Bisulfite sequencing of promoter region after 5AzadC treatment. The class given is cell-based, human. The conditions noted are these: 48 h, bisulfite sequencing (FIG. 5). How it is done: FIG. 5A represents the original sequence for comparison (SEQ ID NO:58).
Bisulfite sequencing and quantitative PCR. DNA was isolated from cells and tissues using standard phenol-chloroform extraction. Bisulfite modification was performed as previously described (24) on DNA from melanocytes, melanoma cell lines prior to and after 48 hr treatment with 5AzadC and DNA from melanoma tissues. PCR reactions were carried out using 50 ng of bisulfite modified DNA in a 30 μl volume with a 0.2 μM primer concentration (primer sequences are provided in the Table 2 with the amplified regions of selected genes provided in Table 3). PCR products were purified using the Qiaquick Gel Extraction kit (Qiagen) and directly sequenced on the ABI 3100-Avant automated DNA sequencer. Particular CpG sites were scored as positive if the C:T peak ratio exceeded 1:3 (at least 25% methylation). Real time quantitative PCR was performed for validation of microarray expression data of selected candidate genes by using 2.5 μl of 100 fold diluted cDNA template and 0.2 μM gene specific primers in a 25 μl PCR reaction using JumpStart SYBR green kit (Sigma) according to manufacturer's instructions in an ABI 7700. The reactions were performed in duplicate, CT values obtained were normalized to GAPDH levels and quantification was performed using the comparative CT method.

Regarding `Nc1ncn([C@H]2C[C@H](O)[C@@H](CO)O2)c(=O)n1` [5AzadC, 5-Aza-2′-deoxycytidine], the “Reversal of loss of expression of promoter-methylated candidate genes” value in experiment [1] is recorded as “could be reversed in the majority of cases”. Moreover, the “Increase of expression of 150 genes upon 5AzadC treatment” value in experiment [2] is “greater than 4 fold”. The “Re-expression of HOXB13” value in experiment [3] was “Re-expression of HOXB13 occurred”. Moreover, in experiment [4], the “Upregulation of SYK” value is reported as above 2 fold. For the same compound, the “Demethylation of promoter region” value in experiment [5] is recorded as “Demethylation was also induced; also recorded: demethylation of the promoter region”.
